Data set [1] in a line: Toxicity (drug death, body weight loss, HNTD) in C51 tumor-bearing BALB/c mice. It is filed as in vivo. The source says:
The animals are observed every day.
Toxicity was declared at dosages inducing≥20% body weight loss or≥10% drug death

The next data set concerns colon adenocarcinoma C51. The experiment in a line: Antitumor efficacy against colon adenocarcinoma C51 grafted in BALB/c mice (T/C, T-C, log cell kill).
The conditions of data set [2]: cisplatin dose 75 mg/m^2; value given with 'previously reported'; cited from earlier work.
Data set [3] in a line: Phase I study: pharmacokinetics of cabazitaxel and cisplatin in patients. The note with it: cisplatin 75 mg/m^2 followed by cabazitaxel.
[4] abbreviates: cabazitaxel alone 7.7 mg/kg/inj IV (total 15.4), days 5, 12.
The mark [5] stands for this setting: cabazitaxel alone 12.4 mg/kg/inj IV (total 24.8), days 5, 12.
[6] abbreviates: cabazitaxel alone 20.0 mg/kg/inj IV (total 40.0), days 5, 12.
Where [7] appears, read: cabazitaxel alone 32.3 mg/kg/inj IV (total 64.6), days 5, 12.
Where [8] appears, read: cisplatin alone 2.7 mg/kg/inj IV (total 5.4), days 5, 12.

Experimental for colon adenocarcinoma C51: This efficacy may be quantified, for example, by the log10 cell kill, which is determined according to the following formula:
A product is considered to be active if log10 cell kill is greater than or equal to 0.7. A product is considered to be very active if log10 cell kill is greater than or equal to 2.8.
The combination will manifest therapeutic synergy when the log10 cell kill is greater than the value of the log10 cell kill of the best constituent administered alone at its maximum tolerated dose (by at least 1 log cell kill).
The efficacy of the combinations on solid tumors may be determined experimentally in the following manner:
The animals subjected to the experiment, generally mice, are subcutaneously grafted bilaterally with 30 to 60 mg of a tumor fragment on day 0. The animals are implanted with a murine tumor grafted in the syngenic strain of mice of origin of the tumor, or by a rodent or human tumor xenografted in immunocompromized mice. Some days post tumor implantation, mice are randomized according to their body weight to the different groups of treatments and controls. The animals are observed every day. […] The groups are then weighed once or twice a week until the end of the trial.
The tumors are measured 1 to 5 times a week, depending on the tumor doubling time, until the tumor reaches approximately 2 g, or until the animal dies (if this occurs before the tumor reaches 2 g). The animals are necropsied immediately after euthanasia or death.
Cabazitaxel was weighed for each treatment and dissolved in ethanol. Treatment solutions were prepared first by mixing 1 volume of ethanolic stock solution and 1 volume of polysorbate 80, then by adding 18 volumes of glucose 5% in water. Cabazitaxel was administered intravenously on days 5, 12 (or 13) after tumor implantation.
The tumors of treatment (T) and control (C) groups were measured when the median of control group reached approximately 750 to 1400 mg. The median tumor weight of each group was determined.
Antitumor efficacy was determined by calculating the T/C value in percent: T/C (%)=Median tumor weight of the Treated/control×100
A T/C <10% is considered to indicate high antitumor activity and is the level used by NCI to justify further development (Decision Network-2 level, DN-2).
To better quantify the antitumor activity, another end point, the log cell kill, was used:

Consider `CO[C@H]1C(=O)[C@]2(C)[C@@H](OC)C[C@H]3OC[C@@]3(OC(C)=O)[C@H]2[C@H](OC(=O)c2ccccc2)[C@]2(O)C[C@H](OC(=O)[C@H](O)[C@@H](NC(=O)OC(C)(C)C)c3ccccc3)C(C)=C1C2(C)C` [cabazitaxel, 4α-acetoxy-2α-benzoyloxy-5β,20-epoxy-1β-hydroxy-7β, 10β-dimethoxy-9-oxo-11-taxen-13α-yl (2R,3S)-3-tert-butoxycarbonylamino-2-hydroxy-3-phenylpropionate], for which the Drug death in data set [1] (setting [4]) is 0/6; in data set [1] (setting [5]) it was 0/6; in data set [1] (setting [6]) it was 0/6; in data set [1] (setting [7]), 6/6. In addition, the “% Body weight change at nadir” value in data set [1] (cabazitaxel alone 7.7 mg/kg/inj IV (total 15.4), days 5, 12, nadir day 9) is on record as −6.8%; in data set [1] (cabazitaxel alone 12.4 mg/kg/inj IV (total 24.8), days 5, 12, nadir day 9), −8.1%; in data set [1] (cabazitaxel alone 20.0 mg/kg/inj IV (total 40.0), days 5, 12, nadir day 19), −14.6%. Also, the Comments entry is listed as “Toxic (6/6 DD)” in data set [1] (setting [7]), “Active” with colon adenocarcinoma C51 (setting [4]), “Active” in the data set on colon adenocarcinoma C51 (setting [5]) and “HNTD active” in the data set with colon adenocarcinoma C51 (setting [6]). For the same molecule, the “highest nontoxic dose (HNTD)” value in data set [1] (cabazitaxel alone IV, days 5, 12 (total injected dose 40 mg/kg)) is listed as 20 mg/kg/inj. In addition, the “T-C in days (750 mg)” value in the data set on colon adenocarcinoma C51 (setting [4]) worked out at 11.0 days; with colon adenocarcinoma C51 (setting [5]) it was 11.7 days; with colon adenocarcinoma C51 (setting [6]) it was 15.2 days. For the same molecule, the “T/C in % on day 20” value is recorded as 5% in the data set on colon adenocarcinoma C51 (setting [4]), 3% in the data set with colon adenocarcinoma C51 (setting [5]) and 0% with colon adenocarcinoma C51 (setting [6]). The “log10 cell kill gross” value in the data set with colon adenocarcinoma C51 (setting [4]) stood at 1.3; in the data set on colon adenocarcinoma C51 (setting [5]), 1.4; in the data set on colon adenocarcinoma C51 (cabazitaxel alone 20.0 mg/kg/inj IV (total 40.0), days 5, 12 (HNTD)) it was 1.8.

Consider `N.N.[Cl][Pt][Cl]` [cisplatin], for which, in data set [2], the “AUClast, free platinum” value is 4170 ng·h/mL and the “AUClast, total platinum” value is 45 820 ng.h/mL. The “effect of cabazitaxel on the PK of cisplatin (total and free)” value in data set [3] was “did not appear to alter”. Moreover, in the data set with colon adenocarcinoma C51 (setting [8]), the Comments entry was “Active”, the “T-C in days (750 mg)” value turned out to be 15.1 days, the “T/C in % on day 20” value was 2% and the “log10 cell kill gross” value worked out at 1.8. In addition, the “T-C in days (750 mg)” value with colon adenocarcinoma C51 (cisplatin alone […] IV (total 8.6), days 5, 12) is reported as 22.1 days.

(Values after patent US20180153931A1 (Aventis Pharma S.A., priority 2011, published 2018).)
